Assay results reported in the supplement of paper PMC11061612.

Assays:
[1] = compound: Cn1cnc2c(F)c(Nc3ccc(Br)cc3Cl)c(C(=O)NOCCO)cc21 [Selumetinib]; conditions: max 10 µM
Procedure, shortened: (§1)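 Cancer cell lines were dosed for 72 hours (final DMSO typically 0.2%) after 24 hours at 37°C and 5% CO2 in 1536-well plates containing 7.5 μl DMEM/F12 or RPMI with 10% FBS. Viability came from CellTiter-Glo 2.0 luminescence, scaled between blank-well and DMSO-well means, and dose responses were fitted to a two-parameter logistic curve with a non-linear mixed effects model. The single-agent IC50 was obtained from this fit.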

[2] = compound: CC(=O)c1c(C)c2cnc(Nc3ccc(N4CCNCC4)cn3)nc2n(C2CCCC2)c1=O [Palbociclib]; conditions: max 10 µM
Procedure, shortened: as §1

[3] = compound: NC1(c2ccc(-c3nc4ccn5c(=O)[nH]nc5c4cc3-c3ccccc3)cc2)CCC1 [MK-2206]; conditions: max 10 µM
Procedure, shortened: as §1

[4] = compound: COc1cccc(OCCCN)c1-c1cc(Nc2cnc(C#N)cn2)n[nH]1 [Prexasertib]; conditions: max 1 µM
Procedure, shortened: as §1

[5] = compound: C=CCn1c(=O)c2cnc(Nc3ccc(N4CCN(C)CC4)cc3)nc2n1-c1cccc(C(C)(C)O)n1 [AZD1775]; conditions: max 3 µM
Procedure, shortened: as §1

[6] = compound: O=C(Nc1ccc2[nH]nc(-c3ccncc3)c2c1)[C@@H]1CCN(CC(=O)N2CCN(c3ccc(-c4ncccn4)cc3)CC2)C1; conditions: max 5 µM
Procedure, shortened: as §1

[7] = compound: CC1(C)CCC(CN2CCN(c3ccc(C(=O)NS(=O)(=O)c4ccc(NCC5CCOCC5)c([N+](=O)[O-])c4)c(Oc4cnc5[nH]ccc5c4)c3)CC2)=C(c2ccc(Cl)cc2)C1 [Venetoclax]; conditions: max 1 µM
Procedure, shortened: as §1

[8] = compound: COc1cc([C@@H]2c3cc4c(cc3[C@@H](O[C@@H]3O[C@@H]5CO[C@@H](C)O[C@H]5[C@H](O)[C@H]3O)[C@H]3COC(=O)[C@H]23)OCO4)cc(OC)c1O [Etoposide]; conditions: max 10 µM
Procedure, shortened: as §1

[9] = compound: O=c1[nH]cc(F)c(=O)[nH]1 [5-Fluorouracil]; conditions: max 20 µM
Procedure, shortened: as §1

[10] = compound: CN(C)CCCOc1ccc(-c2ccc3ncc4c(c3c2)n(C2CCOCC2)c(=O)n4C)cn1 [AZD0156]; conditions: max 3 µM
Procedure, shortened: as §1

[11] = compound: COc1cc2ncnc(Nc3ccc(F)c(Cl)c3)c2cc1OCCCN1CCOCC1 [Gefitinib]; conditions: max 10 µM
Procedure, shortened: as §1

[12] = compound: CC(=O)Nc1cccc(-n2c(=O)n(C3CC3)c(=O)c3c(Nc4ccc(I)cc4F)n(C)c(=O)c(C)c32)c1 [Trametinib]; conditions: max 1 µM
Procedure, shortened: as §1

[13] = compound: COc1cc(Nc2ncc3c(n2)-c2ccc(Cl)cc2C(c2c(F)cccc2OC)=NC3)ccc1C(=O)O [Alisertib]; conditions: max 10 µM
Procedure, shortened: as §1

[14] = compound: Cc1c2c(nn1C)CSCc1cc(n(C)n1)CSc1cc(c3ccccc3c1)OCCCc1c(C(=O)O)n(C)c3c-2c(Cl)ccc13 [AZD5991]; conditions: max 1 µM
Procedure, shortened: as §1

[15] = compound: C1CN(CCC1(C(=O)N[C@@H](CCO)C2=CC=C(C=C2)Cl)N)C3=NC=NC4=C3C=CN4 [AZD5363]; conditions: max 10 µM
Procedure, shortened: as §1

[16] = compound: C[C@@H](c1ccc2nccn2c1)n1nnc2ncc(-c3cnn(C)c3)nc21 [Savolitinib]; conditions: max 1 µM
Procedure, shortened: as §1

[17] = compound: Cc1nc(-c2cn3c(n2)-c2ccc(-c4cnn(C(C)(C)C(N)=O)c4)cc2OCC3)n(C(C)C)n1 [Taselisib]; conditions: max 10 µM
Procedure, shortened: as §1

[18] = compound: CC1=C(C(=CC=C1)Cl)NC(=O)C2=CN=C(S2)NC3=CC(=NC(=N3)C)N4CCN(CC4)CCO [Dasatinib]; conditions: max 2 µM
Procedure, shortened: as §1

[19] = compound: O=C(c1cc(Cc2n[nH]c(=O)c3ccccc23)ccc1F)N1CCN(C(=O)C2CC2)CC1 [Olaparib]; conditions: max 10 µM
Procedure, shortened: as §1

[20] = compound: CCN(CCO)CCCOc1ccc2c(Nc3cc(CC(=O)Nc4cccc(F)c4)[nH]n3)ncnc2c1 [AZD2811]; conditions: max 1 µM
Procedure, shortened: as §1

[21] = compound: Cc1cc2ncnn2cc1Nc1ncc2c(n1)n(C1CCOCC1)c(=O)n2C [AZD7648]; conditions: max 10 µM
Procedure, shortened: as §1

[22] = compound: COc1nnc2ccc(N3CCC(c4ccc(OCCN5CCN(C)C(=O)[C@H]5C)cc4)CC3)nn12 [AZD5153]; conditions: max 1 µM
Procedure, shortened: as §1

[23] = compound: C[C@@H](Oc1cc(-c2cnn(C3CCNCC3)c2)cnc1N)c1c(Cl)ccc(F)c1Cl [Crizotinib]; conditions: max 10 µM
Procedure, shortened: as §1

[24] = compound: CN(CC[C@H](CSC1=CC=CC=C1)NC2=C(C=C(C=C2)S(=O)(=O)NC(=O)C3=CC=C(C=C3)N4CCC(CC4)[C@H](C5=CC=CC=C5C6=CC=C(C=C6)Cl)O)S(=O)(=O)C(F)(F)F)CCO [AZD4320]; conditions: max 1 µM
Procedure, shortened: as §1

[25] = compound: CC1=CN2[C@@H](C1)C=NC3=CC(=C(C=C3C2=O)OC)OCCCCCOC4=C(C=C5C(=C4)N=C[C@@H]6CC(=CN6C5=O)C)OC [SG3199]; conditions: max 0.001 µM
Procedure, shortened: as §1

[26] = compound: N#Cc1cnc(Nc2cc(NC[C@H]3CNCCO3)c(C(F)(F)F)cn2)cn1 [SRA737]; conditions: max 10 µM
Procedure, shortened: as §1

[27] = compound: CS(=O)(=O)CCNCc1ccc(-c2ccc3ncnc(Nc4ccc(OCc5cccc(F)c5)c(Cl)c4)c3c2)o1 [Lapatinib]; conditions: max 10 µM
Procedure, shortened: as §1

[28] = compound: C[C@@H]1COCCN1C2=NC(=NC(=C2)C3(CC3)[S@](=N)(=O)C)C4=C5C=CNC5=NC=C4 [AZD6738]; conditions: max 10 µM
Procedure, shortened: as §1

[29] = compound: C1CC(C1)(C(=O)[O-])C(=O)[O-].N.N.[Pt+2] [Carboplatin]; conditions: max 10 µM
Procedure, shortened: as §1

[30] = compound: CCc1c2c(nc3ccc(O)cc13)-c1cc3c(c(=O)n1C2)COC(=O)[C@]3(O)CC [SN-38]; conditions: max 0.3 µM
Procedure, shortened: as §1

[31] = compound: C[C@@H](Nc1cc(F)cc(F)c1)c1cc(C(=O)N(C)C)cc2c(=O)cc(N3CCOCC3)oc12 [AZD8186]; conditions: max 10 µM
Procedure, shortened: as §1

[32] = compound: CC(=O)O[C@H]1C(=O)[C@@]2(C)[C@H]([C@H](OC(=O)c3ccccc3)[C@]3(O)C[C@H](OC(=O)[C@H](O)[C@@H](NC(=O)c4ccccc4)c4ccccc4)C(C)=C1C3(C)C)[C@]1(OC(C)=O)CO[C@@H]1C[C@@H]2O [Paclitaxel]; conditions: max 3 µM
Procedure, shortened: as §1

[33] = compound: COc1cccc2c1C(=O)c1c(O)c3c(c(O)c1C2=O)C[C@@](O)(C(=O)CO)C[C@@H]3O[C@H]1C[C@H](N)[C@H](O)[C@H](C)O1 [Doxorubicin]; conditions: max 1 µM
Procedure, shortened: as §1

[34] = compound: Nc1ccn([C@@H]2O[C@H](CO)[C@@H](O)C2(F)F)c(=O)n1 [Gemcitabine]; conditions: max 0.3 µM
Procedure, shortened: as §1

[35] = compound: CC(C)n1c(=O)n(C)c2cnc3cc(F)c(-c4ccc(OCCCN5CCCCC5)nc4)cc3c21 [AZD1390]; conditions: max 0.3 µM
Procedure, shortened: as §1

| Cell Line | IC50, cell viability 72 h [1] [nM] | IC50, cell viability 72 h [2] [nM] | IC50, cell viability 72 h [3] [nM] | IC50, cell viability 72 h [4] [nM] | IC50, cell viability 72 h [5] [nM] | IC50, cell viability 72 h [6] [nM] | IC50, cell viability 72 h [7] [nM] | IC50, cell viability 72 h [8] [nM] | IC50, cell viability 72 h [9] [nM] | IC50, cell viability 72 h [10] [nM] | IC50, cell viability 72 h [11] [nM] | IC50, cell viability 72 h [12] [nM] | IC50, cell viability 72 h [13] [nM] | IC50, cell viability 72 h [14] [nM] | IC50, cell viability 72 h [15] [nM] | IC50, cell viability 72 h [16] [nM] | IC50, cell viability 72 h [17] [nM] | IC50, cell viability 72 h [18] [nM] | IC50, cell viability 72 h [19] [nM] | IC50, cell viability 72 h [20] [nM] | IC50, cell viability 72 h [21] [nM] | IC50, cell viability 72 h [22] [nM] | IC50, cell viability 72 h [23] [nM] | IC50, cell viability 72 h [24] [nM] | IC50, cell viability 72 h [25] [nM] | IC50, cell viability 72 h [26] [nM] | IC50, cell viability 72 h [27] [nM] | IC50, cell viability 72 h [28] [nM] | IC50, cell viability 72 h [29] [nM] | IC50, cell viability 72 h [30] [nM] | IC50, cell viability 72 h [31] [nM] | IC50, cell viability 72 h [32] [nM] | IC50, cell viability 72 h [33] [nM] | IC50, cell viability 72 h [34] [nM] | IC50, cell viability 72 h [35] [nM] |
| --- | --- | --- | --- | --- | --- | --- | --- | --- | --- | --- | --- | --- | --- | --- | --- | --- | --- | --- | --- | --- | --- | --- | --- | --- | --- | --- | --- | --- | --- | --- | --- | --- | --- | --- | --- |
| KYSE-220 (Esophageal Squamous Cell Carcinoma) | 9200 | > 10000 | > 10000 | 16.3 | 355 | > 5000 | > 1000 | 2520 | > 20000 | > 3000 | > 10000 | 287 | 9200 | > 1000 | > 10000 | > 1000 | 1220 | > 2000 | > 10000 | > 1000 | > 10000 | 358 | 5480 | > 1000 | > 1 | > 10000 | 4250 | 1190 | > 10000 | 17.5 | > 10000 | 42.4 | 94.3 | 33 | > 300 |
| LU-165 (Small Cell Lung Carcinoma) | > 10000 | > 10000 | > 10000 | 220 | 2940 | > 5000 | > 1000 | > 10000 | > 20000 | > 3000 | > 10000 | > 1000 | > 10000 | > 1000 | > 10000 | > 1000 | > 10000 | > 2000 | > 10000 | > 1000 | > 10000 | > 1000 | > 10000 | > 1000 | > 1 | > 10000 | > 10000 | > 10000 | > 10000 | > 300 | > 10000 | > 3000 | > 1000 | > 300 | > 300 |
| MDA-MB-436 (Breast Carcinoma) | > 10000 | > 10000 | > 10000 | > 1000 | > 3000 | > 5000 | > 1000 | > 10000 | > 20000 | > 3000 | > 10000 | > 1000 | > 10000 | > 1000 | > 10000 | > 1000 | > 10000 | > 2000 | > 10000 | > 1000 | > 10000 | > 1000 | > 10000 | > 1000 | > 1 | > 10000 | > 10000 | > 10000 | > 10000 | 207 | > 10000 | > 3000 | > 1000 | > 300 | > 300 |
| MHH-ES-1 (Ewing's Sarcoma) | > 10000 | > 10000 | > 10000 | 212 | 649 | > 5000 | > 1000 | 2700 | > 20000 | > 3000 | > 10000 | > 1000 | 319 | > 1000 | > 10000 | > 1000 | 5810 | > 2000 | 4150 | 215 | > 10000 | 614 | 3990 | > 1000 | > 1 | > 10000 | > 10000 | > 10000 | > 10000 | 3.05 | > 10000 | 5.4 | 425 | 15.9 | > 300 |
| NCI-H441 (Lung Adenocarcinoma) | > 10000 | > 10000 | > 10000 | 666 | > 3000 | > 5000 | > 1000 | > 10000 | > 20000 | > 3000 | > 10000 | > 1000 | > 10000 | > 1000 | > 10000 | > 1000 | > 10000 | > 2000 | > 10000 | > 1000 | > 10000 | > 1000 | > 10000 | > 1000 | > 1 | > 10000 | > 10000 | > 10000 | > 10000 | 112 | > 10000 | 2240 | > 1000 | 299 | > 300 |
